Experimental data reported in article PMC9769694, “Discovery of Two Inhibitors of the Type IV Pilus Assembly ATPase PilB as Potential Antivirulence Compounds” (Microbiology Spectrum, 2022).

Assays:
Escherichia coli = assay: Growth in liquid culture; type: cell-based; settings: up to 512 μM (highest tested), data not shown
Text: (§1) These include many bacteria with alarming prevalence for causing antibiotic-resistant infection ([12]). […] This is important because, for the development of antivirulence chemotherapies, the small molecules should not have an inhibitory effect on bacterial growth. Otherwise, they would select for resistance, just like antibiotics. From a chemical structure perspective, levodopa is 3,4-dihydroxyphenylalanine (Fig. 2), or phenylalanine with two hydroxyl groups. […] These preliminary studies of structure and activity relationships are consistent with benserazide and levodopa being specific inhibitors of PilB. As mentioned earlier, work with trifluoperazine ([25]) and P4MP4 ([26], [27]) has provided the proof of principle for antivirulence therapies with anti-T4P compounds. It is also encouraging that a compound targeting the adhesin function of the type 1 pilus of the uropathogenic E. coli (UPEC) ([47]) has moved to the clinical trial phase in the drug development pipeline ([48]).

[1] = test system: M. xanthus adventurous (A) motility; assay: Expansion of ΔpilB strain DK10416 (A motility only) on hard agar; type: cell-based, Myxococcus xanthus; settings: up to 128 μM
Text: On the other hand, YZ1674 and YZ2232, which have both A and S motility, were affected in their expansion on hard agar by both compounds (Fig. S4 and S5) at concentrations similar to those on soft agar. Indeed, the results with hard agar plates mirror those with soft agar. […] Because neither benserazide nor levodopa had any effect on A motility (Fig. S3C and D), the net differences on hard agar at different concentrations of the inhibitor (Fig. S4) can be viewed as confirmation of its effect on S motility (Fig. 5). […] It is plausible that this inhibition is attributable to their effects on the PilB ATPase in vivo.
M. xanthus was grown and maintained at 32°C in Casitone-yeast extract (CYE) medium ([49]). Motility assays were conducted with strains DK10416 (ΔpilB) ([40]), YZ1674 (ΔpilB att::MxpilB) ([50]), and YZ2232 (ΔpilB att::MC3pilB) ([30], [51]) as previously described ([28]). One modification was that 10% India ink was included in the cell suspension to mark the initial spot on agar plates. All experiments were conducted in quintuplicates and the diameter of the initial spot, as marked by India ink, was subtracted for data analysis.

[2] = test system: A. nosocomialis twitching motility; assay: Twitching motility, crystal violet stained twitching area; type: cell-based, Acinetobacter nosocomialis; settings: WT M2 strain; for effect on twitching of the WT strain at 128 μM: compared with ΔpilA; for concentration significantly reducing twitching: P < 0.05
Text: The inhibitors may thus interact with conserved features of the PilB ATPase family. A. nosocomialis PilB ([19]), whose N terminus is not similar to the MshEN domain (data not shown), shares ~53% identity and ~74% homology with MxPilB and MC3PilB in the ATPase domain (Fig. S1). We analyzed whether benserazide and levodopa could impact the T4P-powered twitching motility ([19], [44]) of A. nosocomialis (Fig. 7), an opportunistic pathogen in the Acinetobacter calcoaceticus-Acinetobacter baumannii (ACB) complex ([45]). As shown in Fig. 7A and B and Fig. S7, benserazide and levodopa impede the twitching motility of WT A. nosocomialis in a concentration-dependent manner.
FIG 7 Benserazide and levodopa inhibit Acinetobacter nosocomialis twitching motility and biofilm formation. (A and B) Twitching motility is correlated with the twitching area (cm^2) of the A. nosocomialis wild-type (WT) strain in the presence of (A) benserazide or (B) levodopa, with the control (no inhibitor) normalized to 1. Data are from 3 independent experiments, each performed in triplicates and represented by dots of the same color. (C and D) Biofilms formed by A. nosocomialis with (C) benserazide or (D) levodopa were analyzed by a microplate assay with crystal violet (CV) staining. Results from three independent experiments, each performed in quadruplicates and represented by dots of the same color, are shown. Horizontal lines indicate overall averages, and asterisks (*) signify that values at the indicated concentration are statistically different from those of the control (P < 0.05).
The A. nosocomialis wild-type M2 strain and an isogenic pilA deletion (ΔpilA) mutant ([19], [46]) were used in this study. They were grown and maintained using MacConkey medium at 37°C. The twitching motility of the M2 strain of A. nosocomialis was analyzed with 1% crystal violet (CV) for staining, and twitching areas were used as measures of motility as previously described ([46]). These motility assays were conducted in triplicates and the stained area of the ΔpilA mutant was subtracted from that of the WT for data analysis. A. nosocomialis biofilm formation was analyzed using microplates and CV staining as previously described ([53], [54]). The biofilm assays were conducted in quadruplicate in MacConkey medium with tissue culture-treated microtiter plates (Falcon). CV absorbance (Acv) was measured at 590 nm using Infinite M200 PRO in clear polystyrene 96-well microplates (ExtraGene). Absorbance for each well was read 16 times using Multiple Reads with the average as the final Acv value. Readings from control wells without bacteria were subtracted for normalization. Statistical differences were determined using a Student’s t test.

A. nosocomialis = assay: Growth in liquid culture; type: cell-based, Acinetobacter nosocomialis; settings: up to 512 μM (highest tested), data not shown
Text: as §1

Row | SMILES | effect on growth in liquid culture (Escherichia coli) | effect on expansion of DK10416 (A motility) [1] | effect on twitching of the WT strain at 128 μM [2] | concentration significantly reducing twitching [2] [µM] | effect on growth in liquid culture (A. nosocomialis)
1 | NC(CO)C(=O)NNCc1ccc(O)c(O)c1O (stereo not shown) [benserazide] | neither benserazide nor levodopa had any discernible effect on the growth | neither benserazide nor levodopa influenced the expansion of DK10416 | eliminated twitching | ≥ 32 | neither benserazide nor levodopa had any discernible effect on the growth
2 | N[C@@H](Cc1ccc(O)c(O)c1)C(=O)O [levodopa, 3,4-dihydroxyphenylalanine] | neither benserazide nor levodopa had any discernible effect on the growth | neither benserazide nor levodopa influenced the expansion of DK10416 | eliminated twitching | ≥ 32 | neither benserazide nor levodopa had any discernible effect on the growth
